From PubChem BioAssay AID463130 (The Scripps Research Institute Molecular Screening Center, 2010)

Biological target: Protein phosphatase methylesterase 1 (Homo sapiens) (UniProt Q9Y570)
Experiment: inhibition of PME-1 probe labeling – gel-based ABPP, IC50, set 1, late-stage follow-up (AID 463130)
Conditions: fluorophosphonate probe labeling

Protein phosphatase methylesterase 1 (Homo sapiens), sequence (Q9Y570 whole entry, looked up): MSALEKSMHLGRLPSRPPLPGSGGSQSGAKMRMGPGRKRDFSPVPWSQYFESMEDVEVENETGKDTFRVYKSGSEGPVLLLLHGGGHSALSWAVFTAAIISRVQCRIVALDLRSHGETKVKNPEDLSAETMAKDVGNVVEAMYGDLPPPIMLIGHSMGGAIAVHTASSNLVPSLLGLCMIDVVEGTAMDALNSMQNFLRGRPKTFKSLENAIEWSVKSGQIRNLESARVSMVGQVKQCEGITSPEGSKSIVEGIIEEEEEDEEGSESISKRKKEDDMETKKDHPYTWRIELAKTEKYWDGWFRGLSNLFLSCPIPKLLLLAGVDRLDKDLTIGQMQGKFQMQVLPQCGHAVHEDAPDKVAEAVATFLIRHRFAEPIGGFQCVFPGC

COC(=O)N1C(=O)[C@](c2ccccc2)(C(C)C)N1C(=O)OC
IC50: 195 nM
